For 95 sequences, calcium oscillation score results are on record in the OligoGym collection.

Bases are written 5' to 3'; sugars and linkages follow in the same order, as letters with counts (s phosphorothioate, o phosphodiester; PS: all linkages phosphorothioate). The collection does not say whether C is 5-methylated. l = locked nucleic acid (LNA); d = 2'-deoxy (DNA) Some results are limits rather than exact numbers.

The target of the data set is Tau. Description: rat primary cortical neurons, FLIPR, 25 uM ASO.
Regarding “GTCCCCCAAAATATCTC (sugars l3 d12 l2, PS)”, the calcium oscillation score is 72.1 % of control.

Regarding CTCCTATATTCTCAGT (sugars l3 d9 l4, PS), the calcium oscillation score is 73.7 % of control.

In the case of “AATTTGGAAAGATGAAATTT (sugars l3 d14 l3, PS)”, the calcium oscillation score was 0 % of control.

On to “CACCCACTTTCCTAATTCC (sugars l1 d16 l2, PS)”, for which the calcium oscillation score was 60.9 % of control.

On to CTCTTCCACTACAAGC (sugars l3 d11 l2, PS), for which the calcium oscillation score was 46.2 % of control.

Regarding GCATCAGAGGTTTCAG (sugars l3 d10 l3, PS), the calcium oscillation score is 0 % of control.

As to ACCATCATACTCCAAG (sugars l4 d9 l3, PS), the calcium oscillation score is 76 % of control.

Turning to “TGAAGTCAAGCTTCTCAGAT (sugars l3 d14 l3, PS)”, the calcium oscillation score is 0 % of control.

In the case of “TCCCTAATCCCCAAAGA (sugars l2 d13 l2, PS)”, the calcium oscillation score was 53.9 % of control.

Consider “CACATGCTCACACACCAC (sugars l2 d13 l3, PS)”, for which the calcium oscillation score was 97.5 % of control.

For GAAAACCATCAACCAC (sugars l4 d8 l4, PS), the calcium oscillation score is 44.3 % of control.

TGGATGTTGCCTAATG (sugars l3 d10 l3, PS): the calcium oscillation score is 0 % of control.

As to “CAGCTCTTCCATAAGCAGGG (sugars l3 d14 l3, PS)”, the calcium oscillation score was 60.6 % of control.

As for TTCATCACCAAGTCCC (sugars l3 d11 l2, PS), the calcium oscillation score is 51.4 % of control.

Regarding “ATTCACACAACAAACTATT (sugars l4 d11 l4, PS)”, the calcium oscillation score is 74.5 % of control.

For “CATATTCTTCCCTTAATAA (sugars l3 d13 l3, PS)”, the calcium oscillation score is 68 % of control.

Take AGCAATAGCAAACAGG (sugars l3 d10 l3, PS): the calcium oscillation score is 48.8 % of control.

Regarding “TCTTCCTTTGTAATTCCT (sugars l3 d13 l2, PS)”, the calcium oscillation score is 57.9 % of control.

For ATGATGGATGTTGCCT (sugars l3 d10 l3, PS), the calcium oscillation score is 0 % of control.

With “TTTATTTCCAAATTCACTTT (sugars lldllddddddddddlldll, PS)”, the calcium oscillation score was 106 % of control.

Take “TCTTAGTCATCTTCCCT (sugars l3 d12 l2, PS)”: the calcium oscillation score is 68.6 % of control.

On to AATTAGTCACATACCA (sugars l4 d8 l4, PS), for which the calcium oscillation score was 85 % of control.

TCTCTGCTTACAAAATC (sugars l4 d9 l4, PS): the calcium oscillation score is 66.8 % of control.

As for TACAGTCATTTCATTAC (sugars l4 d9 l4, PS), the calcium oscillation score was 64.9 % of control.

As to “TACTAGCCCACCCATCAATT (sugars l3 d14 l3, PS)”, the calcium oscillation score is 54.4 % of control.

On to ACCTCCTGGTTTAT (sugars l3 d8 l3, PS), for which the calcium oscillation score was 89.7 % of control.

Consider GTTTGTAGACTATT (sugars l3 d8 l3, PS), for which the calcium oscillation score is 125 % of control.

Take AATTTAGTCACCATCA (sugars l4 d8 l4, PS): the calcium oscillation score is 62.1 % of control.

With “CCTCCTGGTTTATGATGGAT (sugars l3 d14 l3, PS)”, the calcium oscillation score is 58.3 % of control.

TTTTCTCAATGTAACCT (sugars l4 d9 l4, PS): the calcium oscillation score was 80.5 % of control.

Take GGTTGGATCAGAGGGT (sugars l3 d10 l3, PS): the calcium oscillation score is 7.41 % of control.

For the sequence “CAGCTTGTGGGTTTCAATCT (sugars l3 d14 l3, PS)”, the calcium oscillation score is 0 % of control.

With ACCTTACCACTTTCAG (sugars l3 d10 l3, PS), the calcium oscillation score is 104 % of control.

Turning to “GCCTCTAGCCACATGGACCC (sugars l3 d14 l3, PS)”, the calcium oscillation score is 4.03 % of control.

Turning to “TTATTTCCAAATTCACTTTT (sugars llldldddddddddllddll, PS)”, the calcium oscillation score is 110 % of control.

Regarding CCTGATCACAAACCCT (sugars l3 d10 l3, PS), the calcium oscillation score is 100 % of control.

For “CACCCATCAATTTGGAAAGA (sugars l3 d14 l3, PS)”, the calcium oscillation score was 91.5 % of control.

CAACATTTGCACTCTC (sugars l4 d8 l4, PS): the calcium oscillation score was 67.7 % of control.

As for “GAAATCCCTCTACTCCA (sugars l3 d12 l2, PS)”, the calcium oscillation score was 73.7 % of control.

Consider “AGACCACATTTCCATCCC (sugars l1 d15 l2, PS)”, for which the calcium oscillation score was 71.6 % of control.

In the case of “CGTGGGTGATATTGTCCAGG (sugars l3 d14 l3, PS)”, the calcium oscillation score is 0 % of control.

With “AGCCCATTTACAATTCA (sugars l2 d11 l4, PS)”, the calcium oscillation score is 76.7 % of control.

In the case of “GGGAGATTCTTTCAGGCCAG (sugars l3 d14 l3, PS)”, the calcium oscillation score was 48.1 % of control.

Take ATCGCTTCCAGTCC (sugars l3 d8 l3, PS): the calcium oscillation score is 29.9 % of control.

For the sequence “CAGGGACCCAATCTTCGACT (sugars l3 d14 l3, PS)”, the calcium oscillation score was 9.04 % of control.

For “GGAGTGCTCTTAGCATCAGA (sugars l3 d14 l3, PS)”, the calcium oscillation score was 14.8 % of control.

In the case of “ACACCATCCAAGTCAAT (sugars l3 d10 l4, PS)”, the calcium oscillation score was 16.2 % of control.

Take “CCAACTTTCATCTACTTTTC (sugars l2 d16 l2, PS)”: the calcium oscillation score is 99.7 % of control.

For the sequence “CAAGAGTCACTGCACTGCAT (sugars l3 d14 l3, PS)”, the calcium oscillation score was 50 % of control.

As for CCTTTGAAAGTCCTTT (sugars l4 d8 l4, PS), the calcium oscillation score was 106 % of control.

In the case of “GAAAGATGAAATTTGCTCTT (sugars l3 d14 l3, PS)”, the calcium oscillation score was 100 % of control.

On to “CCTGTCTCAAACACCTA (sugars l2 d12 l3, PS)”, for which the calcium oscillation score is 60.6 % of control.

Take TTTGTAGACTATTT (sugars l3 d8 l3, PS): the calcium oscillation score was 90.7 % of control.

For “ACCTTGCTCAGGTCAACTGG (sugars l3 d14 l3, PS)”, the calcium oscillation score is 2.59 % of control.

In the case of “CCCATCTTAATTCATTTAAT (sugars l2 d14 l4, PS)”, the calcium oscillation score was 90.1 % of control.

In the case of “CAACATTTGCACTCTCT (sugars l2 d11 l4, PS)”, the calcium oscillation score is 53 % of control.

With “AATTTACACCCAAACCTAA (sugars l4 d11 l4, PS)”, the calcium oscillation score is 106 % of control.

Take “ACTCATTTACCAATTATCTT (sugars l2 d14 l4, PS)”: the calcium oscillation score is 60.6 % of control.

Consider “ACTTTATTTCCAAATTCACTTTTAC (sugars lldlddddddddddddddddldlll, PS)”, for which the calcium oscillation score is 35.4 % of control.

On to “CGCGGAAGGTCAGCTTGTGG (sugars l3 d14 l3, PS)”, for which the calcium oscillation score was 0 % of control.

Take “ATTTGGAAAGATGAAATTTG (sugars l3 d14 l3, PS)”: the calcium oscillation score is 0 % of control.

“TCCTCACTTTACACATTAAA (sugars l4 d14 l2, PS)”: the calcium oscillation score is 70.3 % of control.

“ATTAACCCTTGATCATATTT (sugars l3 d14 l3, PS)”: the calcium oscillation score was 40.5 % of control.

In the case of “TCAGATTTTACTTCCACC (sugars l2 d13 l3, PS)”, the calcium oscillation score was 57.5 % of control.

Take “CCCCTCCATTAAGAACCT (sugars l1 d15 l2, PS)”: the calcium oscillation score is 88.6 % of control.

As for “TATGTTTTTTAACTCCC (sugars l4 d11 l2, PS)”, the calcium oscillation score was 94.3 % of control.

With “ATCCAAGTCAATGCCTGGCT (sugars l3 d14 l3, PS)”, the calcium oscillation score is 34.2 % of control.

Consider “TTAGACCACATTTCCAT (sugars l3 d11 l3, PS)”, for which the calcium oscillation score was 96 % of control.

“TTATTTCCAAATTCACTTTT (sugars l5 d10 l5, PS)”: the calcium oscillation score is ≥ 200 % of control.

In the case of TTCTCTAATTGTCCAAT (sugars l4 d9 l4, PS), the calcium oscillation score was 64 % of control.

As for “TCCTCCATTGTAACTACT (sugars l2 d14 l2, PS)”, the calcium oscillation score was 59.4 % of control.

Consider “CTTTATTTCCAAATTCACTT (sugars l5 d10 l5, PS)”, for which the calcium oscillation score is ≥ 200 % of control.

Regarding “CTGGCCATCTTATGCTGACC (sugars l3 d14 l3, PS)”, the calcium oscillation score was 12.8 % of control.

As for AATAAGAAAGGAACGC (sugars l3 d10 l3, PS), the calcium oscillation score is 110 % of control.

Turning to “TCCTGGCCATCTTATGCTGA (sugars l3 d14 l3, PS)”, the calcium oscillation score was 31.2 % of control.

Take “AAGCTTCCACATTTTAC (sugars l4 d10 l3, PS)”: the calcium oscillation score is 68.4 % of control.

Consider GGCTTTGGCGTTCTCG (sugars l3 d10 l3, PS), for which the calcium oscillation score was 1.35 % of control.

Consider “ATTTTACTACTCTCTTTTC (sugars l4 d11 l4, PS)”, for which the calcium oscillation score was 70.6 % of control.

CCTCCTTAACCATTAG (sugars l2 d11 l3, PS): the calcium oscillation score was 54.5 % of control.

For “TTAACCAGCTAGTGGTGCCA (sugars l3 d14 l3, PS)”, the calcium oscillation score was 0 % of control.

For “ACCCATCTTAATTCATTTAA (sugars l3 d14 l3, PS)”, the calcium oscillation score is 96.1 % of control.

As to GCGTTCTCGCGGAA (sugars l3 d8 l3, PS), the calcium oscillation score was 3.83 % of control.

On to “AATAGATCTTTCCCCTCC (sugars l2 d13 l3, PS)”, for which the calcium oscillation score was 76.7 % of control.

In the case of “GAGCACTAACTCTAAGTAGA (sugars l3 d14 l3, PS)”, the calcium oscillation score is 23.8 % of control.

Consider “GGATGTTGCCTAATGAGCCA (sugars l3 d14 l3, PS)”, for which the calcium oscillation score is 0 % of control.

As to “CCACTTTACTTTGCAAC (sugars l4 d11 l2, PS)”, the calcium oscillation score is 55.8 % of control.

As for CCCGAGCCAAAGCC (sugars l3 d8 l3, PS), the calcium oscillation score was 52.2 % of control.

Turning to CAACAGATATTCATTCC (sugars l4 d9 l4, PS), the calcium oscillation score is 60.6 % of control.

With “CCCACATTATATCAGTA (sugars l2 d12 l3, PS)”, the calcium oscillation score was 80.7 % of control.

“AATTCATTTAATTCTCTTCT (sugars l4 d12 l4, PS)”: the calcium oscillation score is 86.6 % of control.

In the case of CACCTTACCACTTTCA (sugars l3 d10 l3, PS), the calcium oscillation score was 115 % of control.

Regarding GGTGCTCTGGTCAAGG (sugars l3 d10 l3, PS), the calcium oscillation score was 14.9 % of control.

On to CCCGTGGTCTGTCT (sugars l3 d8 l3, PS), for which the calcium oscillation score was 89.8 % of control.

CGCTTCCAGTCCCGTC (sugars l3 d10 l3, PS): the calcium oscillation score was 15.7 % of control.

Turning to “TAATTCATAAATGACTATAC (sugars l3 d14 l3, PS)”, the calcium oscillation score is 72.5 % of control.
